Assay results from ChEMBL document CHEMBL5661943, “ASAP - In vitro antiviral effect” (2024).
pEC50: −log10 of the molar value. Values joined by “and” are separate entries in the source; they are usually repeats but may differ in a detail not shown here. Equal values may be shown once.

Assays:
[1] = test system: dengue virus type 2; test: Functional CPE-based assay to measure dose dependent changes in antiviral-drug inhibitory efficacy against Dengue virus type 2 New Guinea C in Huh7 cells. Cells are treated with antiviral candidates that are serially diluted. EC50 is reported via analysis of MTT/MTS assay as a readout of CPE. The assay has been performed by National Institute of Allergy and Infectious Diseases.; assay type: organism-based, Homo sapiens; conditions: Huh-7
[2] = test system: Zika virus; test: EC50 is reported via analysis of immunofluorescence staining. The assay has been performed by Icahn School of Medicine at Mount Sinai.; assay type: functional, organism-based, Chlorocebus sabaeus, VeroE6/TMPRSS2
[3] = test system: dengue virus type 2; test: (§1) Functional immunofluorescence assay to measure dose dependent changes in antiviral-drug inhibitory efficacy against Dengue virus type 2 Thailand/16681/84 in Vero E6/TMPRSS2 cells (cotreated with P-gp inhibitor, Elacridar). Cells are treated with antiviral candidates that are serially diluted, following infection, cells are fixed. EC50 is reported via analysis of immunofluorescence staining. The assay has been performed by Icahn School of Medicine at Mount Sinai.; assay type: organism-based, Chlorocebus sabaeus, VeroE6/TMPRSS2
[4] = test system: Zika virus; test: (§2) Functional CPE-based assay to measure dose dependent changes in antiviral-drug inhibitory efficacy against Zika virus MR766 in Vero E6 miRFP670 cells. Cells are treated with antiviral candidates that are serially diluted. EC50 is reported via analysis of MTS assay as a readout of CPE. The assay has been performed by KU Leuven.; assay type: organism-based, Chlorocebus sabaeus, Vero C1008; conditions: Zika virus
[5] = test system: Zika virus; test: as §1, with “Zika” for “Dengue”, “PRVABC59” for “type 2 Thailand/16681/84”, “cells.” for “cells (cotreated with P-gp inhibitor, Elacridar).”; assay type: organism-based, Chlorocebus sabaeus
[6] = test system: dengue virus type 2; test: as §1, with “cells.” for “cells (cotreated with P-gp inhibitor, Elacridar).”; assay type: organism-based, Chlorocebus sabaeus; conditions: for pEC50: VeroE6/TMPRSS2
[7] = test system: dengue virus type 2; test: Functional assay to measure dose dependent changes in antiviral-drug inhibitory efficacy against Dengue virus type 2 New Guinea C in Vero E6 miRFP670 cells (cotreated with P-gp inhibitor, CP100356). Cells are treated with antiviral candidates that are serially diluted, following infection, cells are fixed. EC50 is reported via analysis of fluorescence intensity using high-content imager. The …; assay type: organism-based, Chlorocebus sabaeus, Vero C1008; conditions: for EC90: Baseline response 0 %, Maximum response 100 %, P-gp concentration 500 nM, P-gp inhibitor CP100356
[8] = test system: Zika virus; test: as §2, with “cells (cotreated with P-gp inhibitor, CP100356).” for “cells.”; assay type: organism-based, Chlorocebus sabaeus, Vero C1008; conditions: Zika virus, Vero C1008

NCc1cccc(NC(=O)[C@@H](NC(=O)OCc2ccccc2)c2ccc(OCc3ccccc3)cc2)c1
pEC50 [1]: < 4.74

COc1cc(Cc2c(-c3ccc(F)cc3)noc2C)nc(N2CCNCC2)n1
pEC50 [1]: < 4.74

c1ccc2sc(C3CCN(Cc4c[nH]c5ccccc45)CC3)nc2c1
EC90 ([2]; Baseline response 0 %, EC90 CI (lower) 0.007 uM, EC90 CI (upper) 47.388 uM, Hill slope -1.134, Maximum measured 126.957 %, Maximum response 50 %, Minimum measured 1.357 %, P-gp concentration 2 uM, R squared 0.32, P-gp inhibitor Elacidar): 28.6 µM
pEC50 ([2]; Zika virus, VeroE6/TMPRSS2): 5.63
EC90 ([2]; Zika virus, VeroE6/TMPRSS2, Baseline response 0 %, Hill slope -0.408, Maximum measured 80.807 %, Maximum response 100 %, Minimum measured 15.814 %, P-gp concentration 2 uM, R squared 0.363, P-gp inhibitor Elacidar): > 16.7 µM
pEC50 ([2]; veroe6/tmprss2): 5.39
EC90 ([3]; Baseline response 0 %, EC90 CI (lower) 2.225 uM, EC90 CI (upper) 16.418 uM, Hill slope -4.495, Maximum measured 125.314 %, Maximum response 100 %, Minimum measured 8.4 %, P-gp concentration 2 uM, R squared 0.582, P-gp inhibitor Elacidar): 16.1 µM
EC90 ([3]; Dengue virus, VeroE6/TMPRSS2): 16.6 µM
pEC50 ([3]; veroe6/tmprss2): 5.66 and 5.01
pEC50 [1]: < 4.74

CC[C@@H](Cc1nnn[nH]1)c1ccc(NC(=O)c2cc(Cl)cc(NC(=O)OCc3ccccc3)c2)cc1
pEC50 ([2]; Zika virus, VeroE6/TMPRSS2): 5.71
EC90 ([2]; Zika virus, VeroE6/TMPRSS2): 2.9 µM
pEC50 ([3]; Dengue virus, VeroE6/TMPRSS2): 4.98
EC90 ([3]; Dengue virus, VeroE6/TMPRSS2, Baseline response 0 %, Hill slope -0.442, Maximum measured 140.797 %, Maximum response 100 %, Minimum measured 47.356 %, P-gp concentration 2 uM, R squared 0.351, P-gp inhibitor Elacidar): > 16.7 µM
pEC50 ([4]; Vero C1008): < 4.30
EC90 ([4]; Vero C1008, Baseline response 0 %, Hill slope 5.649, Maximum measured 5.74 %, Maximum response 100 %, Minimum measured -1.447 %, R squared 0.24): > 50 µM
pEC50 ([5]; VeroE6/TMPRSS2): < 4.30
EC90 ([5]; VeroE6/TMPRSS2): > 50 µM
pEC50 [6]: < 5.26
EC90 ([6]; VeroE6/TMPRSS2, Baseline response 0 %, Hill slope -0.186, Maximum measured 93.084 %, Maximum response 100 %, Minimum measured 36.595 %, R squared 0.076): > 5.56 µM
pEC50 ([7]; Dengue virus, Vero C1008): 4.36
EC90 ([7]; Dengue virus, Vero C1008, Hill slope -24.458, Maximum measured 108.477 %, Minimum measured 3.247 %, R squared 0.952): 47.6 µM

NCCc1cccc(NC(=O)[C@H]2[C@H]3CCCCC[C@H]3[C@H]2NC(=O)OCc2ccccc2)c1
pEC50 ([2]; Zika virus, VeroE6/TMPRSS2): 5.82
EC90 ([2]; Zika virus, VeroE6/TMPRSS2): 27.9 µM
pEC50 ([3]; Dengue virus, VeroE6/TMPRSS2): 6.07
EC90 ([3]; Dengue virus, VeroE6/TMPRSS2, Baseline response 0 %, Hill slope -0.607, Maximum measured 105.284 %, Maximum response 100 %, Minimum measured 41.503 %, P-gp concentration 2 uM, R squared 0.471, P-gp inhibitor Elacidar): > 1.85 µM
pEC50 ([4]; Vero C1008): < 4.30
EC90 ([4]; Vero C1008, Baseline response 0 %, Hill slope 0.101, Maximum measured 6.245 %, Maximum response 100 %, Minimum measured -3.134 %, R squared 0.013): > 50 µM
pEC50 ([5]; VeroE6/TMPRSS2): 4.79
EC90 ([5]; VeroE6/TMPRSS2, Baseline response 0 %, Hill slope -67.816, Maximum measured 128.901 %, Maximum response 100 %, Minimum measured 6.251 %, R squared 0.855): 16.9 µM
pEC50 [6]: < 5.73
EC90 ([6]; VeroE6/TMPRSS2, Maximum measured 147.779 %, Minimum measured 82.782 %): > 1.85 µM
pEC50 ([7]; Dengue virus, Vero C1008): 5.05
EC90 ([7]; Dengue virus, Vero C1008, EC90 CI (lower) 4.071 uM, EC90 CI (upper) 8.838 uM, Hill slope -5.677, Maximum measured 107.479 %, Minimum measured 11.429 %, R squared 0.889): 13 µM

Cc1ccc(NC(=O)c2cc(Cl)cc(NC(=O)OCc3ccccc3)c2)cc1CN
EC90 ([2]; Zika virus, VeroE6/TMPRSS2, Maximum measured 108.754 %, Minimum measured 39.323 %, P-gp concentration 2 uM, P-gp inhibitor Elacidar): > 5.56 µM
EC90 ([2]; Zika virus, VeroE6/TMPRSS2, Baseline response 0 %, Hill slope -0.897, Maximum measured 104.466 %, Maximum response 100 %, Minimum measured 2.423 %, P-gp concentration 2 uM, R squared 0.573, P-gp inhibitor Elacidar): > 5.56 µM
pEC50 ([2]; veroe6/tmprss2): 6.04 and < 5.26
pEC50 ([3]; Dengue virus, VeroE6/TMPRSS2): 6.27
EC90 ([3]; Dengue virus, VeroE6/TMPRSS2, Baseline response 0 %, Hill slope -0.692, Maximum measured 108.544 %, Maximum response 100 %, Minimum measured 11.231 %, P-gp concentration 2 uM, R squared 0.808, P-gp inhibitor Elacidar): > 5.56 µM
pEC50 ([4]; Vero C1008): < 5.51
EC90 ([4]; Vero C1008, Baseline response 0 %, Hill slope 16.084, Maximum measured 41.192 %, Maximum response 100 %, Minimum measured -3.993 %, R squared 0.961): > 3.12 µM
pEC50 ([5]; VeroE6/TMPRSS2): < 4.30
EC90 ([5]; VeroE6/TMPRSS2, Maximum measured 627.464 %, Minimum measured 75.729 %): > 50 µM
pEC50 [6]: > 7.64
EC90 ([6]; VeroE6/TMPRSS2, Baseline response 0 %, Hill slope -0.25, Maximum measured 56.738 %, Maximum response 100 %, Minimum measured 21.854 %, R squared 0.324): > 5.56 µM
pEC50 [8]: 5.58
EC90 ([8]; Baseline response 0 %, Hill slope 6.556, Maximum measured 76.39 %, Maximum response 100 %, Minimum measured 1.967 %, P-gp concentration 500 nM, R squared 0.915, P-gp inhibitor CP100356): > 3.12 µM
EC90 ([7]; EC90 CI (lower) 0 uM, EC90 CI (upper) Could not be calculated, confidence interval too large, Hill slope -15.095, Maximum measured 108.434 %, Minimum measured 1.527 %, R squared 0.917): 3.71 µM
EC90 ([7]; Hill slope -19.938, Maximum measured 107.168 %, Minimum measured 6.341 %, R squared 0.876): 1.73 µM
pEC50 ([7]; vero c1008): 5.49 and 5.81

Cc1[nH]c2ccccc2c1CN1CCC(c2c[nH]c3ncccc23)CC1
EC90 ([2]; Baseline response 0 %, EC90 CI (lower) 0.367 uM, EC90 CI (upper) 8.175 uM, Hill slope -1.726, Maximum measured 163.583 %, Maximum response 100 %, Minimum measured 5.054 %, P-gp concentration 2 uM, R squared 0.694, P-gp inhibitor Elacidar): 22.1 µM
EC90 ([2]; Baseline response 0 %, Hill slope -0.27, Maximum measured 107.973 %, Maximum response 100 %, Minimum measured 29.852 %, P-gp concentration 2 uM, R squared 0.23, P-gp inhibitor Elacidar): > 10 µM
pEC50 ([2]; Zika virus, VeroE6/TMPRSS2): < 5.00
pEC50 ([2]; veroe6/tmprss2): 5.21
EC90 ([3]; Baseline response 0 %, Hill slope -0.694, Maximum measured 115.257 %, Maximum response 100 %, Minimum measured 6.241 %, P-gp concentration 2 uM, R squared 0.775, P-gp inhibitor Elacidar): > 16.7 µM
EC90 ([3]; Dengue virus, VeroE6/TMPRSS2, Baseline response 0 %, Hill slope -0.066, Maximum measured 94.332 %, Maximum response 100 %, Minimum measured 44.366 %, P-gp concentration 2 uM, R squared 0.022, P-gp inhibitor Elacidar): > 10 µM
pEC50 ([3]; veroe6/tmprss2): < 5.00 and 5.52
pEC50 ([4]; Vero C1008): 5.19
EC90 ([4]; Vero C1008): 7.41 µM
pEC50 ([5]; VeroE6/TMPRSS2): 4.88
EC90 ([5]; VeroE6/TMPRSS2, Baseline response 0 %, Hill slope -0.459, Maximum measured 94.623 %, Maximum response 100 %, Minimum measured 4.56 %, R squared 0.472): > 50 µM
pEC50 [6]: < 4.78
EC90 ([6]; VeroE6/TMPRSS2, Baseline response 0 %, Hill slope -0.265, Maximum measured 113.218 %, Maximum response 100 %, Minimum measured 41.507 %, R squared 0.203): > 16.7 µM
pEC50 ([7]; Dengue virus, Vero C1008): 5.15
EC90 ([7]; Dengue virus, Vero C1008, EC90 CI (lower) 3.837 uM, EC90 CI (upper) 5.899 uM, Hill slope -5.588, Maximum measured 107.944 %, Minimum measured 3.436 %, R squared 0.982): 10.5 µM
